Test: clinical
Settings: human, in vivo, po
Description: Evalaution of pharmacokinetic parameters of Acetaminophen following single oral co-administration of 325 mg Acetaminophen tablets with 37.5 mg Tramadol.

CC(=O)Nc1ccc(O)cc1 [ACETAMINOPHEN]
Cmax: 4200 ng/mL | Tmax: 0.9 h | half-life: 2.5 h
